Experimental data published in US6716813B2, “Use of antimicrobial proteins and peptides for the treatment of otitis media and paranasal sinusitis” (priority 2000, dated 2004).
Read-outs that look alike come from different tables or passages of the source. Positions of bridges follow the written chain, without caps; N, C: chain ends. No end group written: not given here.

Legend:
[1] = system: S. pneumoniae serotype 6B; format: cell-based, Streptococcus pneumoniae; details: for effect of salt on the growth inhibitory effect against S. pneumoniae serotype 6B: 100 mM NaCl in gel
Experimental: (§1) The bacteria used in the following examples were cultured as follows: Stocks of NTHi12 and M. catarrhalis […] (generous gift of Dr. Xin-Xing Gu) were maintained at -80° C. For experiments, the bacteria were plated on chocolate agar and incubated overnight at 37° C. in 5% CO2. A single colony was then picked and transferred to 10 ml of brain heart infusion (BHI, Becton Dickinson, Cockeysville, Md.), supplemented with hemin (10 μg/ml, Sigma, St. Louis, Mo.) and NAD (10 μg/ml, Sigma, St. Louis, Mo.), and allowed to grow overnight. In the morning, 1/10 volume of the overnight culture was transferred to fresh medium and incubated for 3-hours. The subculture was then washed twice with 10 mM sodium phosphate and the O.D. at 620 nm was determined. For the S. pneumoniae serotypes 3 and 6B (generous gift of Dr. Xin-Xing Gu), a 50 μl aliquot of the -80° C. stock was thawed on ice, added to 10 ml of Todd-Hewitt broth (THB, Becton Dickinson, Cockeysville, Md.) and cultured overnight. One tenth of the volume of the overnight culture was then transferred to fresh medium and incubated for 3-hours. The subculture was then washed twice with 10 mM sodium phosphate and the O.D. at 620 nm was determined. The radial assay method of […] and coworkers was used, with minor modifications ([…] et al., 1991). The subcultured bacteria (4×10^6 CFU/10 ml underlay gel) were mixed with melted underlay gel at 42° C. (0.1×culture broth-BHI for NTHi and Moraxella and THB for S. pneumoniae-10 mM sodium phosphate, 0.8% low electroendosmosis (EEO)-type agarose) and poured into 8 cm×8 cm square petri plates. The gel was allowed to solidify in the petri plates and wells were punched out with a calibrated 200 μl micropipette tip, cut off at the 50 μl mark (approximately 3 mm). The antimicrobial peptides and proteins were dissolved in 0.01% acetic acid and 4 μl was added to each well. The plates were then incubated for 3 hours at 37° C. in the 5% CO2 incubator. They were next overlaid with the overlay gel (0.5×culture broth, 10 mM sodium phosphate, 0.8% low EEO-type agarose) and covered. The plates were then allowed to incubate overnight at 37° C. in a 5% CO2. The diameter of the zones of inhibition produced by each of the antimicrobial molecules against the OM pathogens (NTHi, M. catarrhalis and S. pneumoniae) was then measured in three separate experiments and the average and standard deviation were calculated. Physiologically, salt concentrations vary depending on the site. However, typically they can be as high as 150 mM. Thus, the salt sensitivity of the antimicrobial molecules was tested. NaCl was added to the gel in Example 2 to obtain a final concentration of 100 mM.

[2] = system: S. pneumoniae serotype 3; format: cell-based, Streptococcus pneumoniae; details: for effect of salt on the growth inhibitory effect against S. pneumoniae serotype 3: 100 mM NaCl in gel
Experimental: as §1

[3] = system: M. catarrhalis strain 035E; format: cell-based, Moraxella catarrhalis; details: for Diameter of the inhibition zone, M. catarrhalis: no added NaCl, average of 3 experiments ± SD; for effect of salt on the growth inhibitory effect against M. catarrhalis: 100 mM NaCl in gel
Experimental: as §1

[4] = system: non-typeable Haemophilus influenzae (NTHi); format: cell-based; details: 10 μg/ml
Experimental: The ability of a few of these innate immune mediators: human milk lysozyme (Lz), human β-defensins (HBD) 1 and 2 and human milk lactoferrin (LF) to inhibit the growth of non-typeable Haemophilus influenzae (NTHi) at other concentrations was also investigated using a different type of assay, a colony formation assay. The molecules were tested separately, as well as in combination, and the effect on NTHi growth was determined using a colony formation assay. […] In previous studies, it was shown that the concentration of lysozyme in middle ear effusion can be as high as 3.7 mg/ml and thus the concentrations used in these studies are well within the physiological range. Incubating the bacteria with 10 μg/ml of either human β-defensin 1 or 2 produced an even more pronounced effect, with close to a 95% reduction in the number of colonies. […] For example, the bacteria may be more sensitive to the antimicrobials in a liquid assay, such as the colony forming assay.

[5] = system: NTHi; assay: ultrastructural analysis (electron microscopy); format: cell-based, nontypeable Haemophilus influenzae
Experimental: (§2) […] The bacterial pellets were left in the fixative at 4° C. for 2 hr, post-fixed in 2% osmium tetroxide, dehydrated in ethanol and embedded in Eponate 12 (Ted Pella, Redding, Calif.). Sections were mounted in coated specimen grids, contrasted with uranyl acetate and lead citrate and examined in a transmission electron microscope (CM120 BioTwin, FEI-Philips, Hillsboro, Oreg.) operating at 80 kV. Images were recorded on photographic film and were subsequently digitized.

[6] = system: NTHi strain12; format: cell-based, nontypeable Haemophilus influenzae; details: for effect of salt on the growth inhibitory effect against NTHi: 100 mM NaCl in gel
Experimental: as §1

[7] = system: M. catarrhalis; assay: ultrastructural analysis (electron microscopy); format: cell-based, Moraxella catarrhalis
Experimental: as §2

[8] = system: S. pneumoniae serotype 6B; assay: ultrastructural analysis (electron microscopy); format: cell-based, Streptococcus pneumoniae; details: 10 μg/ml, three-hour treatment
Experimental: (§3) Electron microscopy was performed by treating the bacterial cultures with antimicrobial protein or peptide for 3 hours, mixing with an equal volume of 5% buffered glutaradehyde (pH 7.4) and centrifuging (5000×g, for 20 minutes). The bacterial pellets were left in the fixative at 4° C. for 2 hr, post-fixed in 2% osmium tetroxide, dehydrated in ethanol and embedded in Eponate 12 (Ted Pella, Redding, Calif.). Sections were mounted in coated specimen grids, contrasted with uranyl acetate and lead citrate and examined in a transmission electron microscope (CM120 BioTwin, FEI-Philips, Hillsboro, Oreg.) operating at 80 kV. Images were recorded on photographic film and were subsequently digitized.

[9] = system: S. pneumoniae serotype 3; assay: ultrastructural analysis (electron microscopy); format: cell-based, Streptococcus pneumoniae; details: three-hour treatment
Experimental: as §3

[10] = 4 and 10 μg, equivalent to 1 and 2.5 mg/ml
[11] = 40 μg per well, equivalent to 10 mg/ml

β-defensin 1 (GNFLTGLGHRSDHYNCVSSGGQCLYSACPIFTKIQGTCYRGKAKCCK; not fully specified; cysteine pairing not given here) [HBD-1, human beta defensin 1, cationic antimicrobial peptide produced by epithelial cells]
effect of salt on the growth inhibitory effect against S. pneumoniae serotype 6B [1]: completely blocked
effect of salt on the growth inhibitory effect against S. pneumoniae serotype 3 [2]: completely blocked
Diameter of the inhibition zone, M. catarrhalis ([3]; 10 μg in 4 μl per well): 7.7 ± 0.6 mm
effect of salt on the growth inhibitory effect against M. catarrhalis [3]: completely blocked
effect on growth of M. catarrhalis ([3]; high dose, 10 μg, equivalent to 2.5 mg/ml): effective
reduction in the number of colonies [4]: ~95%
ultrastructural changes of NTHi ([5]; 10 μg/ml, 3 hours): Morphological changes were also apparent
effect of salt on the growth inhibitory effect against NTHi [6]: completely blocked

GIGDPVTCLKSGAICHPVFCPRRYKQIGTCGLPGTKCCKKP (disulfide 8-37, 15-30, 20-38) [HBD-2, β-defensin 2]
effect of salt on the growth inhibitory effect against S. pneumoniae serotype 6B [1]: blocked the effect
effect on growth of S. pneumoniae serotype 6B [1, 10]: significantly inhibited the growth
effect of salt on the growth inhibitory effect against S. pneumoniae serotype 3 [2]: blocked the effect
effect on growth of S. pneumoniae serotype 3 [2, 10]: significantly inhibited the growth
effect of salt on the growth inhibitory effect against M. catarrhalis [3]: did not inhibit the activity
effect on growth of M. catarrhalis [3, 10]: significantly inhibited the growth
reduction in the number of colonies [4]: ~95%
ultrastructural changes of M. catarrhalis ([7]; 30-minute incubation): substantial damage to the cells
ultrastructural changes of NTHi ([5]; 10 μg/ml, 3 hours): blebbing of the membranes with extrusion of the cytoplasmic contents into the blebs
ultrastructural changes of NTHi ([5]; 10 μg/ml, 3 hours, listed as human β-defensin 2): Morphological changes were also apparent
effect of salt on the growth inhibitory effect against NTHi [6]: did not inhibit the activity
effect on growth of NTHi [6, 10]: significantly inhibited the growth
ultrastructural changes of S. pneumoniae serotype 6B [8]: damage to the capsule and condensation of the cytoplasmic material
ultrastructural changes of S. pneumoniae serotype 3 ([9]; 10 μg/ml): disappearance of the capsule in certain regions and the lysis of the bacteria

human lysozyme [hLz]
Diameter of the inhibition zone, S. pneumoniae 6B ([1]; 40 μg in 4 μl per well, no added NaCl, average of 3 experiments ± SD): 5 ± 1.7 mm
effect on growth of S. pneumoniae serotype 6B [1, 11]: slight but visible inhibition
effect of salt on the growth inhibitory effect against S. pneumoniae serotype 6B [1]: completely blocked
effect of salt on the growth inhibitory effect against S. pneumoniae serotype 3 [2]: completely blocked
effect on growth of S. pneumoniae serotype 3 ([2]; dose not given): appeared to enhance the growth
Diameter of the inhibition zone, M. catarrhalis ([3]; 40 μg in 4 μl per well): 4 ± 1.7 mm
effect on growth of M. catarrhalis [3, 11]: slight but visible inhibition
effect of salt on the growth inhibitory effect against M. catarrhalis [3]: completely blocked
ultrastructural changes of M. catarrhalis ([7]; 1-minute treatment): formation of blebs
ultrastructural changes of NTHi ([5]; 100 μg/ml, 3 hour): Few completely lysed bacteria were observed
ultrastructural changes of NTHi ([5]; 100 μg/ml, 3 hour, listed as human milk lysozyme): extrusion of the outer membrane could clearly be seen
ultrastructural changes of NTHi ([5]; 1 mg/ml, 3 hour): blebbing of the membranes with extrusion of the cytoplasmic contents into the blebs
ultrastructural changes of NTHi, one hour compared with 3 hours ([5]; one hour treatment): similar
effect of salt on the growth inhibitory effect against NTHi [6]: completely blocked
effect on growth of NTHi ([6]; dose not given): no effect
ultrastructural changes of S. pneumoniae serotype 3 ([9]; 1 mg/ml): many fewer bacteria appear to be lysed
